Assay results as given in US20080269258A1, “Riboswitches, Structure-Based Compound Design with Riboswitches, and Methods and Compositions for Use of and with Riboswitches” (priority 2004, published 2008).
In brackets after ≈: the same amount, converted by molar mass. Where two headings read alike, the source gives them in different places.

Assays:
[1] = molecular target: adenine riboswitch RNA (AR); assay: Isothermal titration calorimetry, adenine riboswitch RNA; format: binding; settings: 50 mM K+HEPES, pH 7.5, 100 mM KCl, 10 mM MgCl2, 30° C.
Method: Isothermal Titration Calorimetry. […] All experiments were performed with a Microcal MCS ITC instrument at 30° C. […] Titration data was analyzed using Origin ITC software (Microcal Software Inc.) and fit to a single-site binding model.

[2] = tested on: guanine riboswitch RNA (GR); assay: Isothermal titration calorimetry, guanine riboswitch RNA; format: binding, B. subtilis
Text: Isothermal Titration Calorimetry. RNA for isothermal titration calorimetry (ITC) (Leavitt, S. & Freire, E. Direct measurement of protein binding energetics by isothermal titration calorimetry. Curr Opin Struct Biol 11, 560-6 (2001); Pierce, M., Raman, C. S. & Nall, B. T. Isothermal titration calorimetry of protein-protein interactions. […]

[3] = tested on: guanine riboswitch (aptamer of the xpt-pbuX mRNA); assay: In-line probing of ligand binding to the guanine riboswitch in vitro; parameters: species or system B. subtilis; settings: for Kd: high Mg2+ ion concentrations (20 mM MgCl2), read-out: observed dissociation constant (Kd)
Text: The putative anti-terminator interaction is represented by the boxes. Nucleotides that undergo structural alteration as determined by in-line probing (from C) are identified with squares. […] Asterisks denote alterations to the RNA sequence that facilitate in vitro transcription (5′ terminus) or that generate a restriction site (3′ terminus). Nucleotide numbers begin at the first nucleotide of the natural transcription start site. The translation start codon begins at position 186. […] Lanes designated NR, T1 and ^−OH contain RNA that was not reacted, subjected to partial digestion with RNase T1 (G-specific cleavage), or subjected to partial alkaline digestion, respectively. Selected bands corresponding to G-specific cleavage are identified.
Differences in chemical structure relative to guanine are encircled. Numbers on guanine represent the positions of the ring nitrogen atoms.
NR, T1 and OH identify no reaction, nuclease T1 partial digestion, and alkaline partial digestion respectively. In-line probing assays were conducted for ˜1 day, and a dampening of spontaneous RNA cleavage product bands in the J1/2, J2/3 and J3/1 regions are indicative of ligand binding.

Bacillus anthracis = assay: microbe, parasite or virus in culture; format: cell-based; settings: read-out: Minimal inhibitory concentrations, BA
Mycobacterium smegmatis = assay: Minimal inhibitory concentration, clinically relevant pathogens; format: cell-based; settings: Mycolicibacterium smegmatis; pathogen without guanine riboswitch; read-out: Minimal inhibitory concentrations, MS
Streptococcus pneumoniae = assay: as above; format: cell-based; settings: read-out: Minimal inhibitory concentrations, SP
Haemophilus influenza = assay: as above; format: cell-based; settings: pathogen without guanine riboswitch, read-out: Minimal inhibitory concentrations, HI
[4] = tested on: methicillin-resistant Staphylococcus aureus; assay: as above; format: cell-based; settings: MRSA, read-out: Minimal inhibitory concentrations, MRSA
purR repressor protein = purR repressor protein (Escherichia coli, UniProt P0ACP7); settings: read-out: observed Kd; E. coli variant of purR repressor; cited from earlier work
Chain of purR repressor protein (P0ACP7 whole entry): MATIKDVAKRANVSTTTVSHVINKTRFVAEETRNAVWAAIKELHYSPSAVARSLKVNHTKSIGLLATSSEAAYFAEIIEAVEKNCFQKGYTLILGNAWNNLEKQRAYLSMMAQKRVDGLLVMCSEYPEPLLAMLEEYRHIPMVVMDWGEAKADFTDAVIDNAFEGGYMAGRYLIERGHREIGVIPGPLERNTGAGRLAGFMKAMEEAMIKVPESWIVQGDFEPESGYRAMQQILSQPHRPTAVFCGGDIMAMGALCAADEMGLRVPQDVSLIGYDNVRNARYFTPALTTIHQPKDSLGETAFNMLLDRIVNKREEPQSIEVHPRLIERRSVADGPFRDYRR

[5] = 50 mM K+HEPES, 100 mM KCl, 10 mM MgCl2, 30° C.
[6] = 50 mM K+HEPES, 100 mM KCl, 10 mM MgCl2, 30° C., read-out: Kd

Row | SMILES | Kd [1] [nM] | ΔH [1] [kcal/mol] | ΔS [1] [Cal/mol · deg] | ΔH [2, 5] [kcal/mol] | ΔS [2, 5] [cal/mol · deg] | Kd [2, 6] [nM] | further results
1 | Nc1nc(N)c(N)c(N)n1 [2,4,5,6-Tetraaminopyrimidine] | 24900 ± 4250 | -43.2 ± 3.50 | −122 ± 12.0 |  |  |  | 
2 | Nc1nc(N)c2[nH]cnc2n1 [2,6-Diaminopurine] | 17 ± 6 | -40.3 ± 2.91 | −97.6 ± 4.00 |  |  |  | 
3 | Nc1nc(Br)c2[nH]cnc2n1 [6-Bromoguanine] | 2700 ± 1160 | -50.4 ± 0.16 | −141 ± 1.90 | -39.0 ± 7.79 | −103 ± 26.2 | 2120 ± 560 | 
4 | Nc1nc(Cl)c2nc[nH]c2n1 [6-Chloroguanine] | 721 ± 44 | -44.3 ± 7.2 | −98.6 ± 4.39 | -43.6 ± 13.1 | −116 ± 43.2 | 856 ± 14 | 
5 | Nc1nc(F)nc2nc[nH]c12 [2-Fluoroadenine] | 4020 ± 1070 | -37.4 ± 3.41 | −98.7 ± 11.8 |  |  |  | 
6 | O=c1[nH]c(=O)c2[nH]cnc2[nH]1 [Xanthine] |  |  |  | -34.6 ± 10.4 | −94.4 ± 34.5 | 50500 ± 5800 | 
7 | Nc1nc2nc[nH]c2c(=S)[nH]1 [6-Thioguanine] |  |  |  | -40.6 ± 14.5 | −101 ± 47.5 | 73.7 ± 10 | 
8 | COc1nc(N)nc2nc[nH]c12 [O-Methylguanine] |  |  |  | -18.7 | −23.3 | 3 | 
9 | c1ncc2[nH]cnc2n1 [Purine] | 110000 ± 3000 | -25.4 ± 0.99 | −65.4 ± 3.00 |  |  |  | 
10 | Nc1ncc2[nH]cnc2n1 [2-Aminopurine] | 251 ± 26 | -31.8 ± 2.64 | −73.9 ± 9.26 | -46.4 ± 2.66 | −129 ± 8.20 | 4360 ± 1200 | 
11 | Nc1nc2nc[nH]c2c(=O)[nH]1 [Guanine] |  |  |  | -53.5 ± 6.98 | −137 ± 24.8 | 4 ± 3 | affinity of the riboswitch for guanine over hypoxanthine [3]: tenfold; Kd [3]: 5 nM
12 | CN[C@H](CC(C)C)C(=O)N[C@H]1C(=O)N[C@@H](CC(N)=O)C(=O)N[C@H]2C(=O)N[C@H]3C(=O)N[C@H](C(=O)N[C@H](C(=O)O)c4cc(O)cc(O)c4-c4cc3ccc4O)[C@H](O)c3ccc(c(Cl)c3)Oc3cc2cc(c3O[C@@H]2O[C@H](CO)[C@@H](O)[C@H](O)[C@H]2O[C@H]2C[C@](C)(N)[C@H](O)[C@H](C)O2)Oc2ccc(cc2Cl)[C@H]1O [Vancomycin] |  |  |  |  |  |  | MIC (Bacillus anthracis): 1.5 µg/mL (≈ 1.04 µM); MIC (Mycobacterium smegmatis): 24 µg/mL (≈ 16.6 µM); MIC (Streptococcus pneumoniae): 0.25 µg/mL (≈ 0.173 µM); MIC (Haemophilus influenza): 64 µg/mL (≈ 44.2 µM); MIC [4]: 1 µg/mL (≈ 0.69 µM)
13 | CSc1nc(N)nc2nc[nH]c12 [6-Methylthioguanine] |  |  |  | -24.5 ± 0.20 | −46.9 ± 0.24 | 41.8 ± 3 | 
14 | Nc1nc2c(c(=O)[nH]1)CC=N2 [7-Deazaguanine] |  |  |  | -42.0 ± 3.72 | −105 ± 11.7 | 49 ± 13 | 
15 | O=c1[nH]cnc2nc[nH]c12 [Hypoxanthine] |  |  |  | -31.3 ± 0.01 | −75.3 ± 0.145 | 759 ± 66 | Kd [3]: 50 nM; Kd (purR repressor protein): 9000 nM; ΔHobs ([2]; 0.25 mM MgCl2, 30° C.): -41.9 ± 0.39 kcal/mol; ΔSobs ([2]; 0.25 mM MgCl2, 30° C.): −113 cal mol^−1 K^−1; Kd ([2]; 0.25 mM MgCl2, 30° C., read-out: Kd): 4000 ± 190 nM; ΔHobs ([2]; 1.0 mM MgCl2, 30° C.): -35.4 ± 0.93 kcal/mol; ΔSobs ([2]; 1.0 mM MgCl2, 30° C.): −91 cal mol^−1 K^−1; Kd ([2]; 1.0 mM MgCl2, 30° C., read-out: Kd): 2990 ± 190 nM; ΔHobs ([2]; 5.0 mM MgCl2, 30° C.): -28.4 ± 0.48 kcal/mol; ΔSobs ([2]; 5.0 mM MgCl2, 30° C.): −67 cal mol^−1 K^−1; Kd ([2]; 5.0 mM MgCl2, 30° C., read-out: Kd): 1340 ± 94 nM; ΔHobs ([2]; 20 mM MgCl2, 30° C.): -33.5 ± 0.43 kcal/mol; ΔSobs ([2]; 20 mM MgCl2, 30° C.): −82 cal mol^−1 K^−1; Kd ([2]; 20 mM MgCl2, 30° C., read-out: Kd): 732 ± 34 nM; Kd ([2]; ITC, more physiological ionic strength (0.25-1 mM Mg2+), read-out: observed Kd): 3000 to 4000 nM
16 | Nc1nc2nn[nH]c2c(=O)[nH]1 [Compound 8-Azaguanine, 8-Azaguanine] |  |  |  | -46.9 ± 9.87 | −121 ± 32.6 | 48.7 ± 100 | 
17 | Cc1ncnc2nc[nH]c12 [6-Methylpurine] | 25200 ± 1630 | -31.5 ± 0.42 | −82.9 ± 1.25 |  |  |  | 
18 | Nc1ncnc2nc[nH]c12 [Adenine] | 469 ± 41 | -34.5 ± 0.05 | −84.8 ± 0.30 |  |  |  | 
19 | Nc1cc(N)nc(N)n1 [2,4,6-Triaminopyrimidine] | 18300 ± 1670 | -37.7 ± 0.23 | −102 ± 0.70 |  |  |  | 
